Source: publication PMC9643474, “The mycotoxin viriditoxin induces leukemia- and lymphoma-specific apoptosis by targeting mitochondrial metabolism” (Cell Death & Disease, 2022)

Target: T1, complex I (Bos taurus, UniProt P03887+P17694+P42026)
T1 construct: gene NDUFS2; whole respiratory complex I (about 45 subunits) in isolated bovine heart mitochondria, kit assay
Experiment: MitoCheck complex activity assay, isolated bovine heart mitochondria
Assay type: biochemical
Settings: 15 min, decreased complex I activity, binding site unknown

T1 sequence (P17694 34-463): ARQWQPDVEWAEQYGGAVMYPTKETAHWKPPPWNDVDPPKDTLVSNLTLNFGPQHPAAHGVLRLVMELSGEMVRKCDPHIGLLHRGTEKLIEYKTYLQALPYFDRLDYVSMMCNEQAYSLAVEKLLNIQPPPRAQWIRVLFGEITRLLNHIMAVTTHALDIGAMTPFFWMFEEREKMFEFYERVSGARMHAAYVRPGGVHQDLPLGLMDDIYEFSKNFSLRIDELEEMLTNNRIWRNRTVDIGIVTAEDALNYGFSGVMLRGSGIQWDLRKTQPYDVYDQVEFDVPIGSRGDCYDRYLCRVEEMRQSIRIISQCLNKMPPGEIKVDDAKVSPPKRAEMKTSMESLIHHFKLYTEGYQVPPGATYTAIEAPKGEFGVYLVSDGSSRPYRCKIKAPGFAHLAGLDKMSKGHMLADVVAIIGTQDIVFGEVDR
T1 sequence (P42026 38-216): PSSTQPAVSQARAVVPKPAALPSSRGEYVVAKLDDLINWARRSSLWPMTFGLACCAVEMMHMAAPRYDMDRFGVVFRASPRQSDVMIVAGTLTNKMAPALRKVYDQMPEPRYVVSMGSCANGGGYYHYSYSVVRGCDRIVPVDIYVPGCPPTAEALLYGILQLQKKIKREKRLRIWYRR
T1 sequence (P03887 whole entry): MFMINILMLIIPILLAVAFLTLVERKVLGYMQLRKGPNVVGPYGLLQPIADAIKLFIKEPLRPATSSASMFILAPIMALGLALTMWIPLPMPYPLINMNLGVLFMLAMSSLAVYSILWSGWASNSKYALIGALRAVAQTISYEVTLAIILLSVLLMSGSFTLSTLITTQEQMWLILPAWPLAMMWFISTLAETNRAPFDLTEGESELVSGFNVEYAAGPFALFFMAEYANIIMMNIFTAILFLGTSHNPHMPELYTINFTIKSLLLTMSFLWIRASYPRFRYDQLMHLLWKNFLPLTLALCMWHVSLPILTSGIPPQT

In the case of COC(=O)C[C@@H]1Cc2cc3c(-c4c(OC)cc(O)c5c(O)c6c(cc45)C[C@@H](CC(=O)OC)OC6=O)c(OC)cc(O)c3c(O)c2C(=O)O1 [viriditoxin], the “activity, % of DMSO control at 10 μM” value is reported as “we could observe a decreased activity upon treatment with VDT for complex I”.
